Results as given in patent US20190365742A1, “AZOLE TREATMENT REGIMEN WITH REDUCED HEPATOTOXICITY” (HEDGEPATH PHARMACEUTICALS, INC., priority 2018, published 2019).

Experiment: plasma concentration of itraconazole required for clinical benefit in humans with cancer
Type: in vivo
Settings: human, after 4 weeks of therapy, read-out: minimum plasma trough level required to have a clinically significant effect
Protocol: Optionally, the treatment method further comprises measuring the plasma level of the HhP inhibitor, or a metabolite thereof, in the subject one or more times. In some embodiments, the measuring is carried out one or more times about 4 weeks after initiation of treatment with the HhP inhibitor. Observations concerning the desirability of achieving a plasma trough level of at least about 1,000 ng/mL of the HhP inhibitor are described in U.S. Pat. No. 9,192,609 (“Treatment and Prognostic Monitoring of Proliferation Disorders Using Hedgehog Pathway Inhibitors”; Virca and O'Donnell), which is incorporated herein by reference in its entirety.
In particular, the minimum plasma trough level after 4 weeks of therapy required to have a clinically significant effect was at least 1000 ng/ml. […] Nevertheless, there can be side-effects peculiar to such high doses such as hypertension, peripheral edema, and hypokalemia, which seem to be a result of an increased production of mineralocorticoid. These side effects associated with these high doses of itraconazole can be effectively managed by giving a selective mineralocorticoid antagonist, such as eplerenone. Accordingly, in some embodiments, the method further comprises administering eplerenone or other mineralocorticoid inhibitor. […]

In the case of `CCC(C)n1ncn(-c2ccc(N3CCN(c4ccc(OCC5COC(Cn6cncn6)(c6ccc(Cl)cc6Cl)O5)cc4)CC3)cc2)c1=O` (stereo not shown) [itraconazole], the concentration at 4 weeks is reported as at least 1 µg/mL.
